Data published in publication PMC7175962 (Journal of medicinal chemistry, 2019).
Values after ≈ are worked out from the molar mass of the structure shown.

Experiments:
[1] = tested on: K. pneumoniae 5979 (NDM-1); assay: MIC of imipenem in combination with inhibitor; assay type: cell-based; details: for reduction of imipenem MIC: compound at 128 μg/mL, NDM-1 producing K. pneumoniae
[2] = tested on: E. cloacae 5981 (NDM-1); assay: MIC of imipenem in combination with inhibitor; assay type: cell-based; details: for reduction of imipenem MIC: compound at 128 μg/mL, NDM-1 producing E. cloacae
[3] = tested on: Gram-negative pathogens (all strains); assay: Antibacterial activity of inhibitors alone; assay type: cell-based; details: for MIC: read-out: MIC of compound tested alone; for antibacterial effects by itself, without imipenem: 128 μg/mL
[4] = tested on: E. coli 5980 (NDM-1); assay: MIC of imipenem in combination with inhibitor; assay type: cell-based; details: for reduction of imipenem MIC: compound at 128 μg/mL, NDM-1 producing E. coli
[5] = tested on: P. aeruginosa 4698 (VIM-2); assay: MIC of imipenem in combination with inhibitor; assay type: cell-based
[6] = Kinetic solubility in pH 7.4 PBS; assay type: physicochemical
[7] = target: NDM-1 (Klebsiella pneumoniae, UniProt C7C422); assay: NDM-1 inhibition, nitrocefin hydrolysis assay; assay type: biochemical
[8] = tested on: K. pneumoniae C2 (KPC-2), clinical strain; assay: Checkerboard assay, imipenem plus inhibitor; assay type: cell-based
[9] = target: VIM-2 (Pseudomonas aeruginosa, UniProt Q9K2N0); assay: VIM-2 inhibition, nitrocefin hydrolysis assay; assay type: biochemical; details: VIM-2 versus NDM-1
[10] = target: KPC-2 (Klebsiella pneumoniae, UniProt Q9F663); assay type: biochemical
[11] = tested on: P. aeruginosa 4129 (NDM-1), lacking efflux pumps; assay: Checkerboard assay, imipenem plus inhibitor; assay type: cell-based
[12] = tested on: P. aeruginosa 4882 (VIM-2), lacking efflux pumps; assay: Checkerboard assay, imipenem plus inhibitor; assay type: cell-based
[13] = tested on: P. aeruginosa(eflx+) 4177 (NDM-1); assay: Checkerboard assay, imipenem plus inhibitor; assay type: cell-based
[14] = tested on: K. pneumoniae 4683 (KPC-2); assay: MIC of imipenem in combination with inhibitor; assay type: cell-based; details: Klebsiella pneumoniae, read-out: MIC of imipenem
[15] = tested on: P. aeruginosa 4173 (vector); assay: MIC of imipenem, vector control strain; assay type: cell-based; details: Pseudomonas aeruginosa, read-out: MIC of imipenem
[16] = tested on: P. aeruginosa(eflx+) 4175 (vector); assay: MIC of imipenem, vector control strain; assay type: cell-based; details: Pseudomonas aeruginosa, read-out: MIC of imipenem
[17] = tested on: P. aeruginosa 4135 (KPC-2), lacking efflux pumps; assay: Checkerboard assay, imipenem plus inhibitor; assay type: cell-based; details: Pseudomonas aeruginosa, read-out: MIC of imipenem
[18] = tested on: P. aeruginosa(eflx+) 4402 (VIM-2); assay: Checkerboard assay, imipenem plus inhibitor; assay type: cell-based; details: Pseudomonas aeruginosa, read-out: MIC of imipenem
[19] = Klebsiella pneumoniae, read-out: MIC of imipenem
[20] = Pseudomonas aeruginosa, read-out: MIC of imipenem

Sequence of KPC-2 (Q9F663 25-293, looked up): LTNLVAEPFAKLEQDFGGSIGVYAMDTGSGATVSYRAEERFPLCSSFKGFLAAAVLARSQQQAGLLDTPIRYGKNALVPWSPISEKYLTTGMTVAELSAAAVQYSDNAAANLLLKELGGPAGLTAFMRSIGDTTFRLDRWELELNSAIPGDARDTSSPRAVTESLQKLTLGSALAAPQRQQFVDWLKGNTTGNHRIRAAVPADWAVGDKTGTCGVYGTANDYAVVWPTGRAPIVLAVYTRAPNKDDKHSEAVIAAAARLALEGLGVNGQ
Sequence of NDM-1 (C7C422 29-270, looked up): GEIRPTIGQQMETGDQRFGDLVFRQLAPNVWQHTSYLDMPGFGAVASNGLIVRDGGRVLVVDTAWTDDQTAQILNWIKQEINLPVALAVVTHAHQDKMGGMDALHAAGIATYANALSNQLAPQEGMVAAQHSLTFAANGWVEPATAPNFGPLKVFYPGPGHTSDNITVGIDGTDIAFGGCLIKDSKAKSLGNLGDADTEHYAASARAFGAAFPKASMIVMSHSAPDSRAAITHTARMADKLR

O=c1cc(CP(=O)(O)O)c2ccccc2[nH]1 [Compound 11, [(2-oxo-1,2-dihydroquinolin-4-yl)methyl]phosphonic acid]
reduction of imipenem MIC [1]: little if any effect
reduction of imipenem MIC [2]: little if any effect
MIC [3]: > 128 µg/mL
reduction of imipenem MIC [4]: little if any effect
MIC of imipenem in the presence of compound ([5]; compound at 128 μg/mL): >64 µg/mL

Cc1cc(C)c2c(CP(=O)(O)O)cc(=O)[nH]c2c1 [Compound 13, [(5,7-dimethyl-2-oxo-1,2-dihydroquinolin-4-yl)methyl]phosphonic acid]
reduction of imipenem MIC [1]: unable to rescue imipenem activity
reduction of imipenem MIC [2]: unable to rescue imipenem activity
MIC [3]: > 128 µg/mL
solubility kinetic [6]: 51.6 µg/mL (≈ 193 µM)
reduction of imipenem MIC [4]: 4 fold
MIC of imipenem in the presence of compound ([5]; compound at 128 μg/mL): >64 µg/mL
reduction of imipenem MIC ([5]; compound at 128 μg/mL, VIM-2 producing P. aeruginosa): unable to rescue imipenem activity

Cc1cc(Br)c2c(CP(=O)(O)O)cc(=O)oc2c1 [Compound 9, [(5-bromo-7-methyl-2-oxo-2H-chromen-4-yl)methyl]phosphonic acid]
reduction of imipenem MIC [1]: more than 2 fold
reduction of imipenem MIC [2]: did not have any activity
antibacterial effects by itself, without imipenem [3]: neither 9 nor 16 showed any antibacterial effects
MIC [3]: > 128 µg/mL
reduction of imipenem MIC [4]: 4 fold

O=c1cc(CP(=O)(O)O)c2c(F)cc(F)cc2o1 [Compound 8, [(5,7-difluoro-2-oxo-2H-chromen-4-yl)methyl]phosphonic acid]
Ki (NDM-1) ([7]; nitrocefin substrate, 37 °C, pH 7.2, 50 μM zinc sulfate): did not show inhibition
NDM-1 inhibition after pre-incubation of the compound with NDM-1 ([7]; pre-incubation, data not shown): weak inhibitory activity

O=c1cc(CP(=O)(O)O)c2c(Br)cc(Br)cc2[nH]1 [Compound 16, [(5,7-dibromo-2-oxo-1,2-dihydroquinolin-4-yl)methyl]phosphonic acid]
antibacterial effects by itself, without imipenem [3]: neither 9 nor 16 showed any antibacterial effects
solubility kinetic [6]: 95.9 µg/mL (≈ 242 µM)
MIC of imipenem in the presence of 16 ([8]; 16 at 16 μg/mL): 16 µg/mL
higher affinity for VIM-2 than NDM-1 [9]: ~ 100 x
increase in activity on replacing C7-Me in 9 by -Br (KPC-2) ([10]; relative to compound 9): ~ 12 fold
activity improved over the parent DHQ analog 11 (KPC-2) ([10]; relative to compound 11): ~ 7,000 fold
reduction of imipenem MIC ([11]; 16 at 128 μg/mL): 16 fold
reduction of imipenem MIC ([12]; 16 at 128 μg/mL, maximum observable): 16 fold
decrease in potency by overexpressing efflux pumps, against NDM-1 ([13]; eflx+ versus efflux-deleted strain): up to 4 fold

C[C@@H](O)[C@H]1C(=O)N2C(C(=O)O)=C(SCCN=CN)C[C@H]12 [Imipenem, imipenem, reference compound]
MIC [1, 19]: > 64 µg/mL
MIC ([2]; Enterobacter cloacae, read-out: MIC of imipenem): 2 µg/mL
MIC [14]: 64 µg/mL
MIC [15]: 2 µg/mL
MIC [16]: 2 µg/mL
MIC [8, 19]: 512 µg/mL
MIC [17]: 64 µg/mL
MIC [11, 20]: 128 µg/mL
MIC [18]: 32 µg/mL
MIC ([4]; Escherichia coli, read-out: MIC of imipenem): 8 µg/mL
MIC [12, 20]: 32 µg/mL
MIC [5, 20]: > 64 µg/mL
MIC [13, 20]: 128 µg/mL

O=P(O)(O)Cc1ccnc2ccccc12 [Compound 15, [(quinolin-4-yl)methyl]phosphonic acid]
potencies and ligand efficiencies inferior to DHQ comparator 11 (KPC-2) ([10]; relative to compound 11): 2–5 times

NC(=O)[C@@H]1CC[C@@H]2CN1C(=O)N2OS(=O)(=O)O [avibactam]
MIC of imipenem in the presence of avibactam ([8]; avibactam at 16 μg/mL): 1 µg/mL
reduction of imipenem MIC ([8]; inhibitor at 16 μg/mL): 512 fold
